Patent US7045532B2 (Millennium Pharmaceuticals, Inc., priority 1999, dated 2006)

How the values were obtained:
[1] = target: T1, ACE (Sigma, A2580) (Sus scrofa, UniProt F1RRW5); test: ACE enzymatic activity assay; assay type: biochemical, porcine; details: Ki class; compounds tested in 5% DMSO, 12 concentrations
T1 construct: ACE from porcine kidney; purchased Sigma A2580; host or cells: porcine kidney
T1 sequence (F1RRW5 34-1309): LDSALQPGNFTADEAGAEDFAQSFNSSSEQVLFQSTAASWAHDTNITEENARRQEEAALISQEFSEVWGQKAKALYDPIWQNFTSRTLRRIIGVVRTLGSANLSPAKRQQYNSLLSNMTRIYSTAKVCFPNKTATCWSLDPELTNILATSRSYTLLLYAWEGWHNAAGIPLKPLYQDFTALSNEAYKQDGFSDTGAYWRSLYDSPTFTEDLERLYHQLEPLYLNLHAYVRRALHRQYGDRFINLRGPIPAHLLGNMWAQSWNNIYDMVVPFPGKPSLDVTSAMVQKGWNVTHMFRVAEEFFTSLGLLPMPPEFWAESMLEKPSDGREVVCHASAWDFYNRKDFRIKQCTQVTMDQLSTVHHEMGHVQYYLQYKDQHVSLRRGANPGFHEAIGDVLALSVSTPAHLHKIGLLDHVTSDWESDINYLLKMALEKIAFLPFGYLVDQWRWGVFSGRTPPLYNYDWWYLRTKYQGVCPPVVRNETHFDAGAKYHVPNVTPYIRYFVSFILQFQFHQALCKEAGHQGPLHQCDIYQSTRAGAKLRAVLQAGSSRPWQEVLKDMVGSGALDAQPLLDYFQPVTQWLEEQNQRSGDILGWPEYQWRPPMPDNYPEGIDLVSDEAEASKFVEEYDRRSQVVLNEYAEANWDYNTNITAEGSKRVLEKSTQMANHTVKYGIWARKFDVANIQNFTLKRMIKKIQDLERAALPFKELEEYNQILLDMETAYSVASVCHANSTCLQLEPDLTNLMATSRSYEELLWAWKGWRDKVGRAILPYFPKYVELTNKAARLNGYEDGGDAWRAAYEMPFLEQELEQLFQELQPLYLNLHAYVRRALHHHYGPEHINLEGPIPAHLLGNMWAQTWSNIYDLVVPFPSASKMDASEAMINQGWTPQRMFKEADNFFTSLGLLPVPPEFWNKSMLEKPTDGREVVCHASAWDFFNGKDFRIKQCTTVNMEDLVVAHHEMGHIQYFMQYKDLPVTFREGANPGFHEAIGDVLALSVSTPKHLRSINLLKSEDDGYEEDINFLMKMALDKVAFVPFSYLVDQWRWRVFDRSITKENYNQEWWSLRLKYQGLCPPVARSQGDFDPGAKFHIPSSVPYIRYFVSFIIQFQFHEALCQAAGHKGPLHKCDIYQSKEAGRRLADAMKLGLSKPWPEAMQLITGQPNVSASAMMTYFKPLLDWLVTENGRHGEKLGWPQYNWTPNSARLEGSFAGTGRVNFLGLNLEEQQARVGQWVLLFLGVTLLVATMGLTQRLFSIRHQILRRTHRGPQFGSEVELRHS
Description: ACE (Sigma, A2580) enzymatic activity was assayed in microtiter plates using the following protocol. ACE assay buffer was made from 50 mM HEPES (Sigma), 300 mM sodium chloride (Sigma), and 0.01% Brij-35 (Pierce Chemical Co) at pH 7.5.
Reactions were mixed and incubated at 25° C. Enzymatic cleavage of the substrate is marked by a fluorescence change (excitation 330 nm, emission 415 nm).
The activity of the test compounds was investigated using the procedure outlined above. The compounds were tested in 5% DMSO. Enzyme activity was measured at 12 compound concentrations. […]. […]

[2] = target: T2, ACE-2 (Homo sapiens, UniProt Q9BYF1); test: ACE-2 Competitive Substrate Assay (ACS Assay); assay type: biochemical; details: Ki class; compounds tested in 5% DMSO, 12 concentrations; read-out: Human ACE-2 Activity
T2 construct: a stop codon inserted after the serine immediately preceding the transmembrane domain; made in house; host or cells: CHO K1 cells (transient transfection, purified from conditioned medium)
T2 sequence (Q9BYF1 18-740 limits assumed): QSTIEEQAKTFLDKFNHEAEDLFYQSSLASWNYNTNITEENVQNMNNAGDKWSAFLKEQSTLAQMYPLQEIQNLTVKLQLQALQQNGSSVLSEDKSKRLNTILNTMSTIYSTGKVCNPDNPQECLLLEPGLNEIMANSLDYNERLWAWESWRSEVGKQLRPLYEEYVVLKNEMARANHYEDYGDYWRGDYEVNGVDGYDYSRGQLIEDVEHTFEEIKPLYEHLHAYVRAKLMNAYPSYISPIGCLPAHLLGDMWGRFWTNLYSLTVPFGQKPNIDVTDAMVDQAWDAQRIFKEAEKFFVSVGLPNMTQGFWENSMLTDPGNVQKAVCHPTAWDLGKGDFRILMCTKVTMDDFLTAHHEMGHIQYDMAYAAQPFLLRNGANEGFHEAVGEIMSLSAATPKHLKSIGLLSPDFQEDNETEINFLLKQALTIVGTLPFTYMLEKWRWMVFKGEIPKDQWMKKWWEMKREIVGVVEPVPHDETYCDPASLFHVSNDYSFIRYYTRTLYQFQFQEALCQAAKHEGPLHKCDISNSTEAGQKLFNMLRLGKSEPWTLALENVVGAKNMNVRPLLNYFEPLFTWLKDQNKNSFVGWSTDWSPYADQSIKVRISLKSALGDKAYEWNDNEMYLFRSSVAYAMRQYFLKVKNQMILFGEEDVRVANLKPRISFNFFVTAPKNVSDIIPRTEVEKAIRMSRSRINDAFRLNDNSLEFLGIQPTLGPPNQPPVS

[3] = target: T3, Carboxypeptidase A (Bos taurus, UniProt P00730); test: Carboxypeptidase A activity assay; assay type: biochemical; details: Ki class; compounds tested in 5% DMSO, 12 concentrations
T3 sequence (P00730 111-419): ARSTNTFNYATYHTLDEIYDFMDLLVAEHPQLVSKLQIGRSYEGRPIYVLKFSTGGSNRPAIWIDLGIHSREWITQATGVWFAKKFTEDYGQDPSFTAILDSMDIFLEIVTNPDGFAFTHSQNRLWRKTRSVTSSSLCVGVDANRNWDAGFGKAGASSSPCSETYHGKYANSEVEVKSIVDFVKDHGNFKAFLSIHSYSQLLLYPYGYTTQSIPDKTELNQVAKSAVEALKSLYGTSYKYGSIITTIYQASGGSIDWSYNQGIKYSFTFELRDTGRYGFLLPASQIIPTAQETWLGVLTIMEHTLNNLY
Description: Carboxypeptidase A activity was measured using a literature assay (Holmquist and Riordan, “Carboxypeptidase A,” Methods of Enzymatic Analysis (1984) p. 44–60). The assay was adapted to a 96 well format by adjusting to a 300 μL assay volume and using ultra-thin bottom plates (Costar/Corning) read at 328 nm. The assay was stopped using EDTA.
The activity of the test compounds was investigated using the procedure outlined above. The compounds were tested in 5% DMSO. Enzyme activity was measured at 12 compound concentrations. The Ki was calculated by using Ki=Kiapp/(1+[S]/Km).
To determine whether a test compound is capable of modulating carboxypeptidase A's ability to cleave a substrate the method described in Holmquist and Riordan, Carboxypeptidase A, p44–60, Peptidase and Their Inhibitors in Method of Enzymatic Analysis (1984), may be used.
The assay may be adapted to a 96 well format by adjusting to a 300 μl assay volume and using ultrathin bottom plates (Costar/Coming) read at 328 nm with a final assay volume of 300 μl. The assay may be stopped using EDTA.

Ki [1] [µM]	Ki [2] [nM]	Ki [3] [µM]	Structure (SMILES)
> 50	> 500	> 50	CC(C)C[C@H](NCCCc1ccccc1)C(=O)O [CY, 4-Methyl-2-(3-phenyl-propylamino)-pentanoicacid]
> 50	> 500	> 50	CC(N[C@H](CCc1ccccc1)C(=O)O)C(=O)O (stereo partly drawn) [AW, 2-(1-Carboxy-ethylamino)-4-phenyl-butync acid]
> 50	> 500	> 50	CCCC(NC(Cc1cccs1)C(=O)O)C(=O)O (stereo not drawn) [AI, 2-(1-Carboxy-2-thiophen-2-yl-ethylamino)-pentanoic acid]
> 50	> 500	> 50	CC(C)CC(NC(Cc1cccs1)C(=O)O)C(=O)O (stereo not drawn) [AL, 2-(1-Carobxy-2-thiophen-2-yl-ethylamino)-4-methyl-pentanoic acid]
> 50	> 500	> 50	COC(=O)[C@H](CC(C)C)NC(=O)NCc1ccccc1 [DF, 2-(3-Benzyl-ureido)-4-methyl-pentanoic acidmethyl ester]
> 50	> 500	> 50	CC(C)CC(N[C@@H](Cc1c[nH]cn1)C(=O)O)C(=O)O (stereo in doubt) [AE, 2-[1-Carboxy-2-(1H-imidazol-4-yl)-ethylamino]4-methyl-pentanoic acid]
> 50	> 500	> 50	CCCC(N[C@H](Cc1c[nH]c2ccccc12)C(=O)O)C(=O)O (stereo partly drawn) [X, 2-[1-Carboxy-2-(1H-indol-3-yl)-ethylamino]-pentanoic acid]
> 50	> 500	> 50	O=C(O)[C@H](CC1CCCCC1)N[C@@H](C(=O)O)c1ccccc1 [BP, 2-[(Carboxy-phenyl-methyl)-amino]-3-cyclohexyl-propionic acid]
> 50	> 500	> 50	CCCC(N[C@@H](Cc1c[nH]cn1)C(=O)O)C(=O)O (stereo in doubt) [AF, 2-[1-Carboxy-2-(1H-imidazol-4-yl)-ethylamino]pentanoic acid]
> 50	> 500	< 10	CC(C)C[C@H](NCC(=O)c1ccccc1)C(=O)O [DW, 4-Methyl-2-(2-oxo-2-phenyl-ethylamino)-pentanoic acid]
> 50	> 500	> 50	CC(C)CCN[C@@H](Cc1c[nH]cn1)C(=O)O [DY, 3-(1H-Imidazol-4-yl)-2-(3-methyl-butylamino)-propionic acid]
> 50	> 500	> 50	CCCC[C@H](N[C@@H](C(=O)O)c1ccccc1)C(=O)O [BX, 2-[(Carboxy-phenyl-methyl)-amino]-hexanoicacid]
> 50	> 500	> 50	CC(C)C[C@H](NC(C(=O)O)c1ccc(C(F)(F)F)cc1)C(=O)O (stereo in doubt) [AR, 2-{[Carboxy-(4-trifluoromethyl-phenyl)-methyl]-amino}-4-methyl-pentanoic acid]
> 50	> 500	> 50	CC(C)C[C@H](N[C@@H](CCc1ccccc1)C(=O)O)C(N)=O [DB, 2-(1-Carbamoyl-3-methyl-butylamino)-4-phenyl-butync acid]
> 50	> 500	> 50	CC(C)C[C@H](N[C@H](CCc1ccccc1)C(=O)O)C(N)=O [DC, 2-(1-Carbamoyl-3-methyl-butylamino)-4-phenyl-butync acid]
> 50	> 500	> 50	O=C(O)C(CO)N[C@@H](CCc1ccccc1)C(=O)O (stereo partly drawn) [AB, 2-(1-Carboxy-2-hydroxy-ethylamino)-4-phenyl-butync acid]
> 50	> 500	> 50	CCC(NC(Cc1c[nH]c2ccccc12)C(=O)O)C(=O)O (stereo not drawn) [W, 2-[1-Carboxy-2-(1H-indol-3-yl)-ethylamino]-butync acid]
> 50	> 500	> 50	CC(C)CC(N[C@@H](Cc1cncn1COCc1ccccc1)C(=O)NCCc1ccccc1)C(=O)O (single isomer, unassigned) [FM, 2-[2-(3-Benzyloxymethyl-3H-imidazol-4-yl)-1-phenethylcarbamoyl-ethylamino]-4-methyl-pentanoic acid]
> 50	> 500	10 to 50	CC(C)C[C@H](N[C@H](Cc1ccccc1)C(=O)O)C(=O)O [T, 2-(1-Carboxy-2-phenyl-ethylamino)-4-methyl-pentanoic acid]
> 50	> 500	> 50	CCCCC(CC(=O)O)N[C@@H](Cc1c[nH]cn1)C(=O)O (single isomer, unassigned) [ES, 3-[1-Carboxy-2-(1H-imidazol-4-yl)-ethylamino]heptanoic acid]
> 50	> 500	10 to 50	CC(C)C[C@H](NC(=O)NCc1ccccc1)C(=O)O [DU, 2-(3-Benzyl-ureido)-4-methyl-pentanoic acid]
> 50	> 500	> 50	CC(C)CC(NC(CC(=O)O)c1ccccc1)C(=O)O (stereo not drawn) [CQ, 2-(2-Carboxy-1-phenyl-ethylamino)-4-methyl-pentanoic acid]
> 50	> 500	10 to 50	CSCC[C@H](NC(CC(C)C)C(=O)O)C(=O)O (stereo partly drawn) [AN, 2-(1-Carboxy-3-methylsulfanyl-propylamino)-4-methyl-pentanoic acid]
> 50	> 500	> 50	CC(C)C[C@@H](NC(CCc1ccccc1)C(=O)O)C(=O)O (stereo partly drawn) [BH, 2-(1-Carboxy-3-phenyl-propylamino)-4-methyl-pentanoic acid]
> 50	> 500	> 50	CC(C)CC(N[C@H](CCc1ccccc1)C(=O)O)C(=O)O (stereo partly drawn) [CM, 2-(1-Carboxy-3-phenyl-propylamino)-4-methyl-pentanoic acid]
> 50	> 500	> 50	CCCC(N[C@@H](CCSC)C(=O)O)C(=O)O (stereo in doubt) [AO, 2-(1-Carboxy-3-methylsulfanyl-propylamino)-pentanoic acid]
> 50	> 500	< 10	CC(C)C[C@H](NC(=O)NCCc1ccccc1)C(=O)O [DV, 4-Methyl-2-(3-phenethyl-ureido)-pentanoic acid]
